{"source": "patent US20210353624A1", "about": "“METHOD OF TREATING CANCER WITH TELOTRISAT OR A PRODRUG THEREOF” (TerSera Therapeutics LLC, priority 2020, published 2021)", "key": {"[1]": {"system": "human intrahepatic CCA cells CCLP-1", "assay": "Animal survival in CCLP-1 peritoneal dissemination model", "format": "in vivo, NOD/SCID mice", "settings": "two weeks therapy: gemcitabine 50 mg/kg 2×wk, cisplatin 2.5 mg/kg 2×wk, nab-paclitaxel 5 mg/kg 2×wk, telotristat ethyl 100 mg/kg 5×wk, controls 47 days", "quoted_text": "The human intrahepatic CCA cells CCLP-1 were cultured in DMEM containing 10% FBS. Animal survival was studied in a peritoneal dissemination model, and a tumor growth study was performed in subcutaneous xenografts using 4-6 weeks old female NOD/SCID mice by injecting 10×10^6 CCLP-1 cells per mouse. Ten days after tumor cell injection, mice were randomized (n=4-7) to receive PBS (control), gemcitabine (50 mg/kg, 2×wk), cisplatin (2.5 mg/kg, 2×wk survival study, 1×wk tumor growth study), nab-paclitaxel (5 mg/kg, 2×wk) or telotristat ethyl (100 mg/kg, 5×wk), for two weeks. In the survival study, mice were monitored daily and euthanized when moribund, and survival was measured from the first day of treatment until death. In the tumor growth study, tumor size was measured twice per week and tumor volume was measured using the formula V=½ (L×W2, with L=length and W=width). Comparative statistics utilized one-way ANOVA, Student's t-test and logrank methods."}, "[2]": {"system": "normal cell lines: fallopian tube epithelium (FT240), ovarian surface epithelium (OSE22), first trimester placental fibroblasts (FTP)", "assay": "Cell confluence of normal cell lines grown with telotristat ethyl", "format": "cell-based", "settings": "0, 5, 15 and 30 μM telotristat ethyl, 24 to 96 hours", "method": "This example provides experiments assessing the effects of telotristat ethyl on three aggressive cancer cell lines—liposarcoma (94T778), colon cancer (HT-29), and cholangiocarcinoma (TFK-1)—and three “normal” cell lines—fallopian tube epithelium (FT240), ovarian surface epithelium (OSE22), and first trimester placental fibroblasts (FTP).\nThe cells were grown with 0, 5, 15 and 30 μM telotristat ethyl, plated into four-chambered slides with an initial confluence of at least 30%, and cultured for 24 to 96 hours. At the end of each 24-hour period, cell density was measured with hematoxylin, and the presence of 5-HT was assessed by immunohistochemistry. Experiments were performed in triplicate. Cell confluence was determined, and the 5-HT expression was recorded as an H-score."}, "[3]": {"system": "locally advanced or metastatic neuroendocrine tumors (NETs)", "assay": "Retrospective single arm chart review (TELEACE): tumor progression, PFS, tumor size", "format": "in vivo, human", "design": "patients with progression-free survival (without tumor progression or death) (%) / Progression-free survival: Patients without outcome (%): concentration or dose not given beside the values", "settings": "for Difference in tumor size between pre and post-TE initiation, Estimate: longitudinal generalized linear regression (GEE), 95% CI (−16.1%, −0.2%), P=0.045, negative = decrease; for patients with progression-free survival (without tumor progression or death) (%) / patients without tumor progression (%): overall population", "text": "This example provides a retrospective, single arm study of patients with locally advanced or metastatic neuroendocrine tumors (NETs) and documented carcinoid syndrome (CS). The patients received telotristat ethyl for at least 6 months. […] This example reports progression-free survival (PFS), time to tumor progression, changes in carcinoid syndrome (CS) symptoms, and indictors of overall health.\nPatients with poorly differentiated neuroendocrine tumors, mixed tumor types or conflicting clinical trial enrollment were excluded. Descriptive statistics, Kaplan-Meier and Chi-square tests were used to evaluate PFS, tumor progression, changes in CS symptoms, body weight and Eastern Cooperative Oncology Group (ECOG) performance status before and after telotristat ethyl initiation. Subgroup analyses were conducted in patients with the same pre- and post-telotristat ethyl background treatment.\nAdults with unresectable locally advanced or metastatic neuroendocrine tumors and evidence of carcinoid syndrome documented in their medical chart were eligible for inclusion if they had received telotristat ethyl for at least 6 months and had any additional carcinoid syndrome and neuroendocrine tumor treatment information available for at least six months after telotristat ethyl initiation or until death. The presence of carcinoid syndrome was based on the participating physician's assessment of information contained in the medical charts. Participating physicians were recruited by a professional recruiting organization (Dynata, Plano, Tex., USA) and had to have treated at least one eligible patient with telotristat ethyl in the past 12 months in order to participate. Eligible records had to have documented tumor size and tumor response assessments before and after telotristat ethyl initiation, including at least two radiological scans in the 12 months before telotristat ethyl and at least one scan after telotristat ethyl initiation. Patients with a histologically poorly differentiated neuroendocrine tumor based on grade (G3) or Ki67 index >20%, mixed tumor types according to physician notes, or documented enrollment in any clinical trial during the 6 months after telotristat ethyl initiation were excluded.\nTime to tumor progression was defined as the time from telotristat ethyl initiation to the first documented tumor progression in the medical chart. […] Progression-free survival (PFS) was defined as the time from telotristat ethyl initiation to tumor progression or death. […] Physician-assessed changes in body weight, Eastern Cooperative Oncology Group (ECOG) Performance Status, and CS symptoms including diarrhea, flushing, abdominal pain, nausea and ascites were abstracted from medical charts before and after telotristat ethyl initiation.\nIn order to evaluate the effect of telotristat ethyl treatment on secondary clinical outcomes, analyses were conducted in the overall population and in a subgroup of patients who had the same documented non-telotristat ethyl neuroendocrine tumor treatment before and after telotristat ethyl initiation. Descriptive statistics summarized patient demographic and clinical characteristics, and changes in body weight and ECOG Performance Status after telotristat ethyl treatment initiation. Kaplan-Meier analyses estimated median time to tumor progression and median PFS. Chi-square test evaluated changes in documented CS symptoms (improved vs same/worsened) before and after telotristat ethyl initiation. All analyses were performed using SAS version 9.4 (SAS Institute, Cary, N.C., USA).\nA radiological scan performed immediately before telotristat ethyl initiation was evaluated. A radiological scan performed post-telotristat ethyl was also examined. Paired t-test was used to calculate P-value for tumor size. Statistical significance (P<0.001) was also confirmed using Wilcoxon signed rank test. […]"}, "[4]": {"settings": "6 months after TE initiation, listed as TE"}, "[5]": {"settings": "12 months after TE initiation, listed as TE"}, "[6]": {"settings": "treatment subgroup n=65, 12 months"}, "[7]": {"settings": "treatment subgroup n=65, 18 months"}}, "note": "“And” between values parts separate entries of the source, which are not always exact repeats. Identical values can stand only once.", "data": [{"smiles": "CCOC(=O)[C@@H](N)Cc1ccc(-c2cc(O[C@H](c3ccc(Cl)cc3-n3ccc(C)n3)C(F)(F)F)nc(N)n2)cc1", "note": "[telotristat ethyl, (S)-ethyl 2-amino-3-(4-(2-amino-6-((R)-1-(4-chloro-2-(3-methyl-1H-pyrazol-1-yl)phenyl)-2,2,2-trifluoroethoxy)pyrimidin-4-yl)phenyl)propanoate]", "values": [{"measurement": "animal survival", "setting": "[1]", "result": 52, "unit": "days"}, {"measurement": "cell confluence", "setting": "[2]", "result": "minimally impacted"}, {"measurement": "Tumor size (cm) Change from baseline, Mean ± SD", "setting": "[3]; N=200, P<0.001", "result": "−0.5 ± 1.8", "unit": "cm"}, {"measurement": "Tumor size (cm) Post-TE initiation, Mean (IQR)", "setting": "[3]; N=200, pre-TE 3.5 (2.3, 5.0)", "result": "3.0 (2.0, 4.8) cm"}, {"measurement": "Tumor size (cm) Post-TE initiation, Mean ± SD", "setting": "[3]; N=200, pre-TE 3.9 ± 2.2", "result": "3.4 ± 2.3", "unit": "cm"}, {"measurement": "patients with improved (responded completely or partially) tumor response post-TE initiation", "setting": "[3]; among 33 patients with worsened (progressed) tumor response pre-TE initiation", "result": 45, "unit": "%"}, {"measurement": "average (SD) tumor size reduction", "setting": "[3]; from scan immediately before TE initiation until last scan post-TE, P<0.001", "result": "0.5 (1.8) cm"}, {"measurement": "Difference in tumor size between pre and post-TE initiation, Estimate", "setting": "[3]", "result": "−8.5", "unit": "%"}, {"measurement": "Difference in tumor size between pre and post-TE initiation, Estimate", "setting": "[3]; listed as TE", "result": "−8.5", "unit": "%"}, {"measurement": "median progression-free survival", "setting": "[3]; overall population n=200, Kaplan-Meier, IQR 17.8, 39.8", "result": 23.7, "unit": "months"}, {"measurement": "median time to tumor progression", "setting": "[3]; overall population n=200, Kaplan-Meier, IQR 18.7, 39.8", "result": 39.8, "unit": "months"}, {"measurement": "patients with progression-free survival (without tumor progression or death) (%)", "setting": "[3]; 6 months after TE initiation", "result": "90% and 89.5%"}, {"measurement": "patients without tumor progression (%)", "setting": "[3]; 6 months after TE initiation", "result": 92, "unit": "%"}, {"measurement": "patients with progression-free survival (without tumor progression or death) (%)", "setting": "[3]; [4]", "result": 89.5, "unit": "%"}, {"measurement": "patients without tumor progression (%)", "setting": "[3]; [4]", "result": 92.0, "unit": "%"}, {"measurement": "patients with progression-free survival (without tumor progression or death) (%)", "setting": "[3]; 12 months after TE initiation", "result": "80% and 79.9%"}, {"measurement": "patients without tumor progression (%)", "setting": "[3]; 12 months after TE initiation", "result": "87% and 86.8%"}, {"measurement": "patients with progression-free survival (without tumor progression or death) (%)", "setting": "[3]; [5]", "result": 79.9, "unit": "%"}, {"measurement": "patients without tumor progression (%)", "setting": "[3]; [5]", "result": 86.8, "unit": "%"}, {"measurement": "patients with progression-free survival (without tumor progression or death) (%)", "setting": "[3]; 18 months after TE initiation", "result": 72.1, "unit": "%"}, {"measurement": "patients without tumor progression (%)", "setting": "[3]; 18 months after TE initiation", "result": 78.3, "unit": "%"}, {"measurement": "Tumor progression: Patients without outcome (%)", "setting": "[3]; treatment subgroup n=65 (same background treatment pre/post TE), 6 months", "result": 100.0, "unit": "%"}, {"measurement": "Progression-free survival: Patients without outcome (%)", "setting": "[3]; treatment subgroup n=65, 6 months", "result": 96.9, "unit": "%"}, {"measurement": "Progression-free survival: Patients without outcome (%)", "setting": "[3]; [6]", "result": 87.5, "unit": "%"}, {"measurement": "Tumor progression: Patients without outcome (%)", "setting": "[3]; [6]", "result": 90.4, "unit": "%"}, {"measurement": "Progression-free survival: Patients without outcome (%)", "setting": "[3]; [7]", "result": 87.5, "unit": "%"}, {"measurement": "Tumor progression: Patients without outcome (%)", "setting": "[3]; [7]", "result": 90.4, "unit": "%"}]}]}
